Common to all, as to format: cell-based
For assay [1], the system named is Staphylococcus aureus MT1222 gyrA^A116E grlB^S80F. The experiment in a line: microbe, parasite or virus in culture. Conditions: cipR strain, Cation-Adjusted Mueller-Hinton Broth, 37° C., read-out: MIC.
The test system of assay [2] is Streptococcus pneumoniae ATCC6303. The experiment in a line: MIC, microbroth dilution (NCCLS). The following applies: rifS strain, THY Broth with 1 mg/mL catalase, 5% CO2, 37° C., read-out: MIC. On the technique in general: Broth dilution looks for growth in wells or tubes with falling amounts of substance.
The subject of assay [3] is Staphylococcus aureus ATCC29213. The experiment in a line: MIC, microbroth dilution (NCCLS). The following applies: rifS strain, Cation-Adjusted Mueller-Hinton Broth, 37° C., read-out: MIC.
The subject of assay [4] is Staphylococcus aureus ATCC29213 rpoB^H418Y. The experiment in a line: microbe, parasite or virus in culture. Conditions: Staphylococcus aureus, ATCC29213; rifR strain; Cation-Adjusted Mueller-Hinton Broth, 37° C.; read-out: MIC.
The test system of assay [5] is Streptococcus pyogenes ATCC19615. The experiment in a line: MIC, microbroth dilution (NCCLS). The following applies: rifS strain, THY Broth, 37° C., read-out: MIC.
The test system of assay [6] is Staphylococcus epidermidis ATCC12228. Kind of assay: MIC, microbroth dilution (NCCLS). The following applies: rifS strain, Cation-Adjusted Mueller-Hinton Broth, 37° C., read-out: MIC.
Assay [7] concerns Haemophilus influenzae ATCC10211. Kind of assay: MIC, microbroth dilution (NCCLS). The following applies: rifS strain, BHI Broth with NAD and hematin, 37° C., read-out: MIC.

Consider 9 compounds from patent US7238694B2, “Rifamycin imino derivatives effective against drug-resistant microbes” (Cumbre Pharmaceuticals, Inc., priority 2004, dated 2007).

≈ marks a conversion by molar mass, not a printed value.

Take `CO[C@H]1/C=C/O[C@@]2(C)Oc3c(C)c(O)c4c(O)c(c(/C=N/N5CCN(c6nc7c(cc6F)c(=O)c(C(=O)O)cn7-c6ccc(F)cc6F)CC5)c(O)c4c3C2=O)NC(=O)/C(C)=C\C=C\[C@H](C)[C@H](O)[C@@H](C)[C@@H](O)[C@@H](C)[C@H](OC(C)=O)[C@@H]1C` [Example 14, 3-[4-[3-Carboxy-1-(2,4-difluoro-phenyl)-6-fluoro-4-oxo-1,4-dihydro-[1,8]naphthyridine-7-yl]-piperazin-1-ylaminomethylenyl]rifamycin SV]: the MIC lay within 0.008 to 0.125 µg/mL (≈ 0.0071 to 0.111 µM) in assay [1]; 0.008 to 0.06 µg/mL (≈ 0.0071 to 0.0532 µM) in assay [2]; 0.008 to 1 µg/mL (≈ 0.0071 to 0.887 µM) in assay [3]; 0.06 to 16 µg/mL (≈ 0.0532 to 14.2 µM) in assay [4]; 0.008 to 0.03 µg/mL (≈ 0.0071 to 0.0266 µM) in assay [5]; 0.008 to 0.1 µg/mL (≈ 0.0071 to 0.0887 µM) in assay [6]. Moreover, the MIC in assay [7] was in the range of 0.125 to 4 µg/mL (≈ 0.111 to 3.55 µM).
With `CO[C@H]1/C=C/O[C@@]2(C)Oc3c(C)c(O)c4c(O)c(c(/C=N/N5CCN(C(=O)C6CCN(c7nc8c(cc7F)c(=O)c(C(=O)O)cn8-c7ccc(F)cc7F)C6)CC5)c(O)c4c3C2=O)NC(=O)/C(C)=C\C=C\[C@H](C)[C@H](O)[C@@H](C)[C@@H](O)[C@@H](C)[C@H](OC(C)=O)[C@@H]1C` (mixture of isomers) [Example 36, (R/S)-3-{4-[1-(3-Carboxy-1-(2,4-difluoro-phenyl)-6-fluoro-4-oxo-1,4-dihydro-[1,8]naphthyridine-7-yl)-pyrrolidin-3-yl-carbonyl]-piperazin-1-yl-aminomethylenyl}-rifamycin SV], the MIC is 0.008 to 0.125 µg/mL (≈ 0.00653 to 0.102 µM) in assay [1]; 0.008 to 0.06 µg/mL (≈ 0.00653 to 0.049 µM) in assay [2]; 0.008 to 1 µg/mL (≈ 0.00653 to 0.817 µM) in assay [3]; 0.06 to 16 µg/mL (≈ 0.049 to 13.1 µM) in assay [4]; 0.008 to 0.03 µg/mL (≈ 0.00653 to 0.0245 µM) in assay [5]; 0.008 to 0.1 µg/mL (≈ 0.00653 to 0.0817 µM) in assay [6]. Also, the MIC in assay [7] was 0.125 to 4 µg/mL (≈ 0.102 to 3.27 µM).
For `COc1c(N2CCN(/N=C/C3=C4NC(=O)/C(C)=C\C=C\[C@H](C)[C@H](O)[C@@H](C)[C@@H](O)[C@@H](C)[C@H](OC(C)=O)[C@H](C)[C@@H](OC)/C=C/O[C@@]5(C)Oc6c(C)c(O)c(c(c6C5=O)C3=O)C4=O)C(C)C2)c(F)cc2c(=O)c(C(=O)O)cn(C3CC3)c12` (mixture of isomers) [Example 12, (R/S)-3-[4-(3-Carboxy-1-cyclopropyl-6-fluoro-8-methoxy-4-oxo-1,4-dihydroquinolin-7-yl)-2-methylpiperazin-1-yl-aminomethylenyl]rifamycin S], the MIC in assay [1] is 0.008 to 0.125 µg/mL (≈ 0.0073 to 0.114 µM); in assay [2], 0.008 to 0.06 µg/mL (≈ 0.0073 to 0.0547 µM); in assay [3], 0.008 to 1 µg/mL (≈ 0.0073 to 0.912 µM); in assay [4], 0.06 to 16 µg/mL (≈ 0.0547 to 14.6 µM); in assay [5], 0.008 to 0.03 µg/mL (≈ 0.0073 to 0.0274 µM); in assay [6] it was 0.008 to 0.1 µg/mL (≈ 0.0073 to 0.0912 µM). Further, the MIC in assay [7] is 0.125 to 4 µg/mL (≈ 0.114 to 3.65 µM).
Turning to `COc1c(N2CCN(C3CCN(/N=C/c4c5c(O)c6c(O)c(C)c7c(c6c4O)C(=O)[C@@](C)(O/C=C/[C@H](OC)[C@@H](C)[C@@H](OC(C)=O)[C@H](C)[C@H](O)[C@H](C)[C@@H](O)[C@@H](C)/C=C/C=C(/C)C(=O)N5)O7)CC3)CC2)c(F)cc2c(=O)c(C(=O)O)cn(C3CC3)c12` [Example 25, 3-{4-[1-(3-Carboxy-1-cyclopropyl-6-fluoro-8-methoxy-4-oxo-1,4-dihydroquinolin-7-yl)-piperazin-4-yl]-piperidin-1-yl-aminomethylenyl}-rifamycin SV], the MIC in assay [1] fell in the range of 0.008 to 0.125 µg/mL (≈ 0.00685 to 0.107 µM); in assay [2], 0.008 to 0.06 µg/mL (≈ 0.00685 to 0.0514 µM); in assay [3], 0.008 to 1 µg/mL (≈ 0.00685 to 0.857 µM); in assay [4] it was 0.06 to 16 µg/mL (≈ 0.0514 to 13.7 µM); in assay [5], 0.008 to 0.03 µg/mL (≈ 0.00685 to 0.0257 µM); in assay [6], 0.008 to 0.1 µg/mL (≈ 0.00685 to 0.0857 µM). Also, in assay [7], the MIC is 0.125 to 4 µg/mL (≈ 0.107 to 3.43 µM).
As for `CO[C@H]1/C=C/O[C@@]2(C)Oc3c(C)c(O)c4c(O)c(c(/C=N/N5CCN(c6cc7c(cc6F)c(=O)c(C(=O)O)cn7C6CC6)CC5)c(O)c4c3C2=O)NC(=O)/C(C)=C\C=C\[C@H](C)[C@H](O)[C@@H](C)[C@@H](O)[C@@H](C)[C@H](OC(C)=O)[C@@H]1C` [Example 4, 3-[4-(3-Carboxy-1-cyclopropl-6-fluoro-4-oxo-1,4-dihydroquinolin-7-yl)piperazin-1-yl-aminomethylenyl]rifamycin SV], the MIC in assay [1] is 0.008 to 0.125 µg/mL (≈ 0.00759 to 0.119 µM); in assay [2], 0.008 to 0.06 µg/mL (≈ 0.00759 to 0.0569 µM); in assay [3] it was 0.008 to 1 µg/mL (≈ 0.00759 to 0.949 µM); in assay [4], 0.06 to 16 µg/mL (≈ 0.0569 to 15.2 µM); in assay [5], 0.008 to 0.03 µg/mL (≈ 0.00759 to 0.0285 µM); in assay [6], 0.008 to 0.1 µg/mL (≈ 0.00759 to 0.0949 µM). In assay [7], the MIC lay within 0.125 to 4 µg/mL (≈ 0.119 to 3.79 µM).
For `CO[C@H]1/C=C/O[C@@]2(C)Oc3c(C)c(O)c4c(O)c(c(/C=N/N5CCN(c6c(F)cc7c(=O)c(C(=O)O)cn(C8CC8)c7c6Cl)CC5)c(O)c4c3C2=O)NC(=O)/C(C)=C\C=C\[C@H](C)[C@H](O)[C@@H](C)[C@@H](O)[C@@H](C)[C@H](OC(C)=O)[C@@H]1C` [Example 40, 3-[4-(3-Carboxy-8-chloro-1-cyclopropyl-6-fluoro-4-oxo-1,4-dihydroquinolin-7-yl)-piperazin-1-yl-aminomethylenyl]-rifamycin SV], the MIC in assay [1] is 0.008 to 0.125 µg/mL (≈ 0.00735 to 0.115 µM); in assay [2], 0.008 to 0.06 µg/mL (≈ 0.00735 to 0.0551 µM); in assay [3] it was 0.008 to 1 µg/mL (≈ 0.00735 to 0.919 µM); in assay [4] it was 0.06 to 16 µg/mL (≈ 0.0551 to 14.7 µM); in assay [5] it was 0.008 to 0.03 µg/mL (≈ 0.00735 to 0.0276 µM); in assay [6] it was 0.008 to 0.1 µg/mL (≈ 0.00735 to 0.0919 µM). In assay [7], the MIC was in the range of 0.125 to 4 µg/mL (≈ 0.115 to 3.67 µM).
Consider `CO[C@H]1/C=C/O[C@@]2(C)Oc3c(C)c(O)c4c(O)c(c(/C=N/NC5CCN(c6c(F)cc7c(=O)c(C(=O)O)cn(C8CC8)c7c6Cl)C5)c(O)c4c3C2=O)NC(=O)/C(C)=C\C=C\[C@H](C)[C@H](O)[C@@H](C)[C@@H](O)[C@@H](C)[C@H](OC(C)=O)[C@@H]1C` (mixture of isomers) [Example 6, (R/S)-3-[1-(8-chloro-3-carboxy-1-cyclopropyl-6-fluoro-4-oxo-1,4-dihydroquinolin-7-yl)-pyrrolidin-3-ylhydrazinomethylenyl]rifamycin SV], for which the MIC in assay [1] was 0.008 to 0.125 µg/mL (≈ 0.00735 to 0.115 µM); in assay [2] it was 0.008 to 0.06 µg/mL (≈ 0.00735 to 0.0551 µM); in assay [3] it was 0.008 to 1 µg/mL (≈ 0.00735 to 0.919 µM); in assay [4], 0.06 to 16 µg/mL (≈ 0.0551 to 14.7 µM); in assay [5], 0.008 to 0.03 µg/mL (≈ 0.00735 to 0.0276 µM); in assay [6] it was 0.008 to 0.1 µg/mL (≈ 0.00735 to 0.0919 µM). The MIC in assay [7] fell in the range of 0.125 to 4 µg/mL (≈ 0.115 to 3.67 µM).
For `CCn1cc(C(=O)O)c(=O)c2cc(F)c(N3CCN(/N=C/c4c5c(O)c6c(O)c(C)c7c(c6c4O)C(=O)[C@@](C)(O/C=C/[C@H](OC)[C@@H](C)[C@@H](OC(C)=O)[C@H](C)[C@H](O)[C@H](C)[C@@H](O)[C@@H](C)/C=C/C=C(/C)C(=O)N5)O7)CC3)cc21` [Example 18, 3-[4-(3-Carboxy-1-ethyl-6-fluoro-4-oxo-1,4-dihydroquinolin-7-yl)-piperazin-1-yl-aminomethylenyl]-rifamycin SV], the MIC in assay [1] lay in the range of 0.008 to 0.125 µg/mL (≈ 0.00768 to 0.12 µM); in assay [2], 0.008 to 0.06 µg/mL (≈ 0.00768 to 0.0576 µM); in assay [3], 0.008 to 1 µg/mL (≈ 0.00768 to 0.96 µM); in assay [4], 0.06 to 16 µg/mL (≈ 0.0576 to 15.4 µM); in assay [5], 0.008 to 0.03 µg/mL (≈ 0.00768 to 0.0288 µM); in assay [6], 0.008 to 0.1 µg/mL (≈ 0.00768 to 0.096 µM). For the same compound, the MIC in assay [7] was in the range of 0.125 to 4 µg/mL (≈ 0.12 to 3.84 µM).
Consider `CO[C@H]1/C=C/O[C@@]2(C)Oc3c(C)c(O)c4c(O)c(c(/C=N/NCC5CCN(c6c(F)cc7c(=O)c(C(=O)O)cn(C8CC8)c7c6Cl)C5)c(O)c4c3C2=O)NC(=O)/C(C)=C\C=C\[C@H](C)[C@H](O)[C@@H](C)[C@@H](O)[C@@H](C)[C@H](OC(C)=O)[C@@H]1C` (mixture of isomers) [Example 39, (R/S)-3-[1-(3-Carboxy-8-chloro-1-cyclopropyl-6-fluoro-4-oxo-1,4-dihydroquinolin-7-yl)-pyrrolidin-3-yl-methyl-hydrazino-methylenyl]-rifamycin SV], for which the MIC lay within 0.008 to 0.125 µg/mL (≈ 0.00726 to 0.113 µM) in assay [1]; 0.008 to 0.06 µg/mL (≈ 0.00726 to 0.0544 µM) in assay [2]; 0.008 to 1 µg/mL (≈ 0.00726 to 0.907 µM) in assay [3]; 0.06 to 16 µg/mL (≈ 0.0544 to 14.5 µM) in assay [4]; 0.008 to 0.03 µg/mL (≈ 0.00726 to 0.0272 µM) in assay [5]; 0.008 to 0.1 µg/mL (≈ 0.00726 to 0.0907 µM) in assay [6]. Besides, the MIC in assay [7] was 0.125 to 4 µg/mL (≈ 0.113 to 3.63 µM).
